Test results reported in the supplement of paper PMC11997997.

Key:
[1] = system: murine bone marrow-derived macrophages; assay: area under cytotoxicity dose-response curve (AUC (% cytotoxicity x dose, relative)); higher = more cytotoxic; conditions: duration: 6 days; dose range: 0.13-80 uM, 8 points
Method in brief: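 Cytotoxicity is given as the area under the dose–response curve, computed in GraphPad Prism version 10. Primary murine bone marrow-derived macrophages in opaque 384-well plates received an 8-point, 2.5-fold dilution series (final 80–0.13 μM) for 6 days at 37 °C in 5% CO2. Viability was measured by Promega's CellTiter-Glo luminescence assay, with percent cytotoxicity normalised to vehicle and positive control wells.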

[2] = system: Mycobacterium tuberculosis CDC1551 (intracellular, in murine BMDM); assay: area under intracellular growth-inhibition dose-response curve (AUC (% inhibition x dose, relative)); higher = more potent; conditions: duration: 6 days; dose range: 0.13-80 uM, 8 points
Method in brief: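 Luciferase-expressing M. tuberculosis CDC1551 was used at multiplicity of infection 1 for 1 h to infect primary murine bone marrow-derived macrophages in 384-well opaque plates, 24 h after seeding. Treatment followed for 6 days with an 8-dose, 2.5-fold series at final concentrations of 80–0.13 μM. GraphPad Prism was used to calculate the area under the growth-inhibition dose–response curve from Bright-Glo luciferin readings normalised to a reference drug control and the lowest-concentration wells.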

Row | SMILES | area under cytotoxicity dose-response curve [1] | area under intracellular growth-inhibition dose-response curve [2]
1 | COc1ccc(C(=O)Oc2cc(/C=N/NC(N)=S)ccc2OC)cc1 | 53.3 | 211
2 | CCc1ccc(NC(=O)NC2CCCCCCC2)cc1 | 85.4 | 120
3 | Cc1nnc(N2CCCCC2)c2ccccc12 | 15.8 | 117
4 | O=C(CSc1ccccc1F)NNC(=O)c1ccncc1 | 38.8 | 230
5 | CCc1ccc(OCC(=O)NC(=S)Nc2ccc(C(C)=O)cc2)c(Br)c1 | < 0 | 238
6 | COc1ccc(C(=O)C(C)OC(=O)CNC(=O)c2ccco2)cc1 (configuration not stated) | < 0 | 166
7 | COc1ccc(CCNC2=C(Cl)C(=O)N(CCc3ccc(OC)c(OC)c3)C2=O)cc1OC | 92.7 | 66.8
8 | CCOC(=O)c1cnc(-n2nc(C)cc2C)nc1NCCc1ccccc1 | 21.7 | 247
9 | O=c1c2cc(Cl)ccc2oc2nc3n(c(=O)c12)CCCS3 | 33.5 | 216
10 | C/C(=N\NC(=O)c1ccncc1)C12CC3CC(CC(C3)C1)C2 | 97.9 | 239
11 | COc1ccc(C(=O)COC(=O)CNC(=O)c2ccc(C)s2)c(OC)c1 | < 0 | 29.9
12 | Cc1nc2ccccn2c1C(=O)NCc1ccc2c(c1)OCO2 | 38.9 | 203
13 | COc1cc(/C=N\NC(=O)c2sc(N)nc2C)cc(OC)c1OC | 140 | 35.1
14 | CN(C)c1ccc(/C=N/CC2(O)CCOC(C)(C)C2)cc1 (configuration not stated) | 103 | 1.75
15 | CNc1ccc2oc(C[C@H]3O[C@@]4(CC[C@H]3C)O[C@H]([C@H](C)C(=O)c3ccc[nH]3)[C@H](C)C[C@H]4C)nc2c1C(=O)O | 9.01 | 148
16 | Cc1nc(SCC(=O)NCc2ccc3c(c2)OCO3)nc(C)c1C | < 0 | 54.6
17 | CCCNC(=O)OCC12CC3CC(CC(C3)C1)C2 | 228 | 237
18 | CC1CCC/C(=N\NC(=O)c2ccncc2)C1 (configuration not stated) | 70.8 | 186
19 | Nc1ccc(C(=O)[O-])c(O)c1.O.[Na+] | 0.704 | 184
20 | O=C(NCCN1CCOCC1)c1cc([N+](=O)[O-])cc([N+](=O)[O-])c1 | 8.42 | 168
21 | CC(C)C(=O)N1CCN(c2ccc(NC(=O)c3ccc([N+](=O)[O-])o3)cc2Cl)CC1 | 79.8 | 109

Row | SMILES | area under cytotoxicity dose-response curve [1] | area under intracellular growth-inhibition dose-response curve [2]
22 | COc1ccc2c(c1)c(CC(=O)OCC(=O)O)c(C)n2C(=O)c1ccc(Cl)cc1 | 47.6 | 117
23 | CCc1ccc(C(=O)/C=C/c2ccc([N+](=O)[O-])o2)cc1 | 5.66 | 142
24 | CCCCCCNC(=O)c1ccc(Br)o1 | < 0 | 225
25 | CN(C)[C@@H]1C(=O)C(C(N)=O)=C(O)[C@@]2(O)C(=O)C3=C(O)c4c(O)ccc(Cl)c4[C@@H](O)[C@H]3C[C@@H]12.Cl | < 0 | 253
26 | Cc1nnc(SCC2=C(C(=O)O)N3C(=O)C(NC(=O)Cn4nc(C)c(Cl)c4C)C3SC2)s1 (configuration not stated) | 82.6 | 112
27 | COc1ccc(S(=O)(=O)N2CCN(C(=O)C3CC(=O)N(c4ccccc4F)C3)CC2)cc1OC (configuration not stated) | 27.9 | 104
28 | S=C(Nc1ccc(N2CCOCC2)cc1)Nc1ccc2snnc2c1 | 57.1 | 235
29 | C[n+]1c2ccccc2nc2ccc(NCCO)cc21.[O-][Cl+3]([O-])([O-])[O-] | < 0 | 107
30 | Cc1cc(/C=N/NC(N)=S)c(C)n1-c1ccc(Cl)cc1 | 44.8 | 220
31 | Clc1ccc(-c2nnc(C3CCCCC3)o2)cc1 | < 0 | 212
32 | CCOC(=O)/C=C/C(=O)Nc1ccc(-c2nnc3n2CCCCC3)cc1 | 34.8 | 131
33 | O=C(O)c1nc(O)nc(O)c1F | < 0 | 174
34 | CCC(=O)NC(=S)Nc1ccc(NC(=O)c2ccccc2[N+](=O)[O-])cc1 | 32.7 | 267
35 | Cc1ccc(C)c(-c2nnc(NC(=O)c3ccc([N+](=O)[O-])o3)o2)c1 | 128 | 62
36 | Cc1nn(-c2ccccc2)cc1/C=N/NC(N)=S | 24.4 | 274
37 | Cc1ccc(/C=N/NC(=O)c2ccncc2)o1 | 78.6 | 213
38 | CCCCn1c(N)c(N(CCOC)C(=O)c2oc3ccc(Br)cc3c2C)c(=O)[nH]c1=O | 7.25 | 207
39 | CC[C@@H](C)[C@@H]1CN([C@@H](CN2CCC[C@H]2CN2C(N)=NC[C@@H]2Cc2ccccc2)C(C)C)C(=N)N1CCCC1CCCC1 | 98.8 | 83.6
40 | CCOC(=O)N=Nc1c2nc3nonc3[nH]c-2c2ccccc12 | 186 | 136
41 | CC(C)/N=c1\cc2n(-c3ccc(Cl)cc3)c3ccccc3nc-2cc1Nc1ccc(Cl)cc1 | 73.5 | 208
42 | CCN1C(=O)/C(=C\NC2CCCC(C)C2C)SC1=S (configuration not stated) | 97.6 | 226

Row | SMILES | area under cytotoxicity dose-response curve [1] | area under intracellular growth-inhibition dose-response curve [2]
43 | O=C1NC(=S)S/C1=C\C=C\c1ccc([N+](=O)[O-])o1 | 71.5 | 2.55
44 | Cc1cccc(/C=N/NC(=O)c2ccncc2)n1 | 14 | 269
45 | O=C(NCCc1ccncc1)Nc1cccc(Cl)c1 | 79.9 | 11.9
46 | CCOC(=O)c1ccccc1OCc1cc(/C=N/NC(=O)c2ccncc2)ccc1OC | 20.2 | 269
47 | COc1ccc2nc(C)cc(N/N=C/c3cccc(OC)c3O)c2c1 | 69 | 124
48 | NC(=O)C[C@H](NC(=O)c1ccc(Cl)cc1)C(=O)OCc1ccccc1 | < 0 | 16.5
49 | O=C(NCc1ccco1)c1cc2ccccc2o1 | 135 | 105
50 | CCCCN(C(=O)CSc1nnc(-c2ccccc2)o1)c1c(N)n(CCC)c(=O)[nH]c1=O | < 0 | 65.6
51 | CCN1C(=O)C(O)(C2COC(C)(C)CC2=O)c2ccccc21 (configuration not stated) | 41 | 31.5
52 | CCC[C@@H](CN1CCC[C@H]1CN1C(N)=NC[C@@H]1Cc1ccccc1)N1C[C@@H](Cc2ccccc2)N(CCCC2CCCC2)C1=N | 52.7 | 200
53 | CC(=O)n1cc(/C=N/NC(N)=S)c2ccccc21 | < 0 | 273
54 | O=C(COC(=O)Cc1cccs1)NCC(=O)Nc1ccc(F)cc1 | 45.1 | < 0
55 | Br.COc1ccc(C2=CSC(/N=C/c3ccc(F)cc3)=NN2)cc1 | 49.1 | 182
56 | COc1ccc(-c2[nH]ncc2/C=N/NC(=O)c2ccncc2)c(OC)c1 | < 0 | 218
57 | COc1ccc(/C=N/NC(N)=S)cc1 | 4.45 | 258
58 | CCn1cc(CNC(=O)c2cc([N+](=O)[O-])c(C)c([N+](=O)[O-])c2)cn1 | 16.8 | 226
59 | O=C(CSc1cccc[n+]1[O-])c1cc(Cl)ccc1Cl | 47.3 | 127
60 | Cc1cccc(C)c1-n1c(C)cc(/C=N/NC(=O)c2ccncc2)c1C | 32.2 | 252
61 | Cc1cc(C(=O)N/N=C/c2ccc([N+](=O)[O-])o2)c(C)o1 | 105 | 142
